Source: patent US20250236595A1 (priority 2020, published 2025)

Tests used:
[1] = system: D-galactose-induced aging model; assay: D-galactose-induced aging model, testicular decline: testosterone in serum (ELISA); format: in vivo, BALB/c male mice; conditions: male mice, D-galactose 200 mg/kg/d*42d; SPAM1 10 or 100 μmol/kg/d*28d i.p. from day 15; high dose more significant than low
Procedure: (§1) A D-galactose-induced aging model was used. Forty BALB/c male mice (SPF grade, 8-10 weeks old, weighing 22-27 g) were randomly divided into following 4 groups, with 10 mice in each group: 1) aging model group, injected with D-galactose (200 mg/kg/d*42d) subcutaneously at the neck or back; 2) SPAM1 low-dose treatment group, injected with D-galactose as in group 1), and injected with low-dose SPAM1 (10 μmol/kg/d*28d) intraperitoneally on day 15; 3) SPAM1 high-dose treatment group, injected with D-galactose as in group 1), and injected with high-dose SPAM1 (100 μmol/kg/d*28d) intraperitoneally on day 15; and 4) normal control group, injected with normal saline intraperitoneally instead of D-galactose and SPAM1; 24 h after all injections, blood was collected from the orbit, and the level of testosterone in serum was assayed by the enzyme-linked immunosorbent assay (ELISA).

LPS-induced sepsis model = assay: LPS-induced sepsis model, survival; format: in vivo, BALB/c mice; conditions: SPAM1 10 or 100 μmol/kg i.p. 30 min before 15 mg/kg LPS at the tail vein; survival recorded for 8 days
Procedure: An LPS-induced sepsis model was used. Forty BALB/c mice (SPF grade, half male and half female, 8-10 weeks old, weighing 22-27 g) were randomly divided into following 4 groups, with 10 mice in each group: 1) sepsis model group, injected with normal saline intraperitoneally, and 30 min later, injected with 15 mg/kg LPS at the tail vein; 2) SPAM1 low-dose treatment group, injected with low-dose SPAM1 (10 μmol/kg) intraperitoneally, and 30 min later, injected with 15 mg/kg LPS at the tail vein; 3) SPAM1 high-dose treatment group, injected with high-dose SPAM1 (100 μmol/kg) intraperitoneally, and 30 min later, injected with 15 mg/kg LPS at the tail vein; and 4) normal control group, injected with normal saline intraperitoneally, and 30 min later, injected with normal saline at the tail vein; the survival of mice was observed every 24 h, and the survival rate of each group was recorded for 8 days.

corticosterone = assay: Level of corticosterone (COR) in serum of mice after intraperitoneal injection (ELISA); format: in vivo, BALb/c mice; conditions: SPAM1 10, 100 and 1000 μmol/kg intraperitoneal; blood 1 h after injection; vs normal saline control
Procedure: Forty BALb/c mice (SPF grade, 8-10 weeks old, weighing 22-27 g, half female and half male) were randomly divided into following […], with 10 mice in each group: 1) SPAM1 low-dose group, intraperitoneal injection, 10 μmol/kg; 2) SPAM1 medium-dose group, intraperitoneal injection, 100 μmol/kg; 3) SPAM1 high-dose group, intraperitoneal injection, 1000 μmol/kg; 4) normal control group, injected with normal saline intraperitoneally; 1 h after the injection, blood was collected from the orbit, and the level of COR in serum was measured by the solid phase sandwich enzyme-linked immunosorbent assay (ELISA).

[2] = system: D-galactose-induced aging model; assay: D-galactose-induced aging model, ovarian decline: estradiol and luteinizing hormone in serum (ELISA); format: in vivo, BALB/c female mice; conditions: female mice, D-galactose 200 mg/kg/d*42d; SPAM1 10 or 100 μmol/kg/d*28d i.p. from day 15; high dose more significant than low
Procedure: as §1, with “female” for “male”, “after the completion of” for “after”, “estradiol and luteinizing hormone” for “testosterone”

[3] = system: dexamethasone-induced thymus decline model; assay: Dexamethasone-induced thymus decline model, thymus index; format: in vivo, BALB/c mice; conditions: dexamethasone 25 mg/kg/d*2d i.p.; SPAM1 10 or 100 μmol/kg/d*2d i.p. at the same time
Procedure: A dexamethasone-induced thymus decline model was used. Forty BALB/c mice (SPF grade, half male and half female, 8-10 weeks old, weighing 22-27 g) were randomly divided into following 4 groups, with 10 mice in each group: 1) aging model group, injected with dexamethasone (25 mg/kg/d*2d) intraperitoneally; 2) SPAM1 low-dose treatment group, injected with dexamethasone as in group 1), and injected with SPAM1 at a low dose (10 μmol/kg/d*2d) intraperitoneally at the same time; 3) SPAM1 high-dose treatment group, injected with dexamethasone as in group 1), and injected with SPAM1 at a high dose (100 μmol/kg/d*2d) intraperitoneally at the same time; and 4) normal control group, injected with normal saline intraperitoneally instead of dexamethasone and SPAM1; 24 h after the completion of the final injection, the mice were weighed and sacrificed by cervical dislocation method, the thymus of the mice was weighed, and the thymus index was calculated according to: thymus index=thymus weight (mg)/body weight (g).

PACAP = assay: Level of PACAP in serum of mice after intraperitoneal injection (ELISA kit); format: in vivo, BALb/c mice; conditions: SPAM1 10 and 100 μmol/kg intraperitoneal; blood 30 min after injection; vs normal saline control
Procedure: Thirty BALb/c mice (SPF grade, 8-10 weeks old, weighing 22-27 g, half female and half male) were randomly divided into following […], with 10 mice in each group: 1) SPAM1 low-dose group, intraperitoneal injection, 10 μmol/kg; 2) SPAM1 high-dose group, intraperitoneal injection, 100 μmol/kg; 3) normal control group, injected with normal saline intraperitoneally; 30 min after the injection, blood was collected from the orbit, and serum was assayed for PACAP using an ELISA kit.

PAC1-R [4] = assay: PAC1-R expression in SHSY-5Y cells, confocal immunofluorescence; format: cell-based, Human; conditions: 100 μM SPAM1, incubated 1 h
Procedure: Human nerve cells SHSY-5Y naturally expressing the PAC1-R were cultured until the fusion rate was more than 80%, added with 100 μM SPAM1, and observed by confocal immunofluorescence after being incubated for 1 h.

PAC1-R [5] = assay: PAC1-R expression in Neuro2a cells, western blot with anti-PAC1-R (C-terminal) antibody; format: cell-based, Mouse; conditions: SPAM1 at 1 μM, 10 μM and 100 μM, incubated 1 h
Procedure: Mouse nerve cells Neuro2a naturally expressing the PAC1-R were cultured until the fusion rate was more than 80%, added with SPAM1 at 1 μM, 10 μM and 100 μM, and disrupted after being incubated for 1 h. The supernatant of the whole cell lysate was subjected to SDS-PAGE and the western blot assay using the anti-PAC1-R (C-terminal) antibody.

[6] = cited from earlier work

Molecule	level of testosterone in serum of aging mice [1]	death rate / survival rate in LPS-induced sepsis (LPS-induced sepsis model)	level of COR in serum (corticosterone)	level of estradiol in serum of aging mice [2]	level of luteinizing hormone in serum of aging mice [2]	thymus index (thymus weight (mg)/body weight (g)) [3]	level of PACAP in serum (PACAP)	red fluorescent signal targeting PAC1-R in SHSY-5Y cells (PAC1-R [4])	expression of PAC1-R in nerve cells Neuro2a (western blot) (PAC1-R [5])	in vivo half-life [6]
O=C(CCCc1nc2ccccc2c(=O)[nH]1)NCc1ccc(C(=O)O)cc1	effectively up-regulated	effectively inhibited death caused by LPS-induced sepsis	increased the level of COR in a concentration-dependent manner	effectively up-regulated	effectively up-regulated	effectively inhibited the dexamethasone-induced down-regulation of thymus index	effectively up-regulated the level of PACAP in serum and the up-regulation was concentration-dependent	significantly up-regulated	up-regulated the expression of PAC1-R in nerve cells in a concentration-dependent manner	
PACAP38										less than 2 min
